In patent publication US6696488B2, “(Hydroxyethyl)ureas as inhibitors of alzheimer's β-amyloid production” (The Brigham and Women's Hospital, Inc., priority 2000, dated 2004):

Key:
[1] = test system: total Aβ peptide production; test: Inhibition of total Aβ peptide production in APP-transfected cells, ELISA (Example 2); type: cell-based; conditions: 4 hours in culture, FIG. 1, read-out: concentration for 50 percent inhibition of total Aβ peptide production
Source text: (§1) Cell Lines, Compound Treatments, and ELISAs. Cell lines were Chinese hamster ovary (CHO) and SK-N-SH human neuroblastoma cells stably transfected with the 751- or 695-amino acid splicing variants of APP, respectively, and the neo gene, and human embryonic kidney (HEK) 293 cells carrying the same genes (APP695 plus neo) but with the K595N/M596L (“Swedish”) double mutation of APP. Xia W et al., J Biol Chem 272:7977-7982 (1997); Citron M et al., Proc Natl Acad Sci USA 93:13170-13175 (1996). Cells were grown to confluence in Dulbecco's modified Eagle's medium containing 200 μg/ml G418 (Gibco BRL). Stock concentrations of the (hydroxyethyl)urea compounds of the invention in DMSO were added to media to reach the final concentrations with 1% DMSO. Positive controls contained 1% DMSO alone. […] The reporter antibody was detected using 3,3′,5,5′-tetramethylbenzidine (Pierce), measuring at 455 nm for calculating Aβ levels and at 595 nm for normalization.
(§2) Compound III-20 (shown above) or compound III-24 (identical to III-20 except R4 is L-phenylalanine O-methyl ester) was added over a range of concentrations (0.1-100 μM) to APP-transfected cells in culture as described. […] After 4 hours in culture, supernatants from test and control cultures were assayed by ELISA specific for Aβ peptides, and results were analyzed as percent total or specific Aβ produced compared to control.

[2] = test system: Aβ42 production; test: Inhibition of Aβ42 production in APP-transfected cells, ELISA (Example 2); type: cell-based; conditions: 4 hours, compared with total Aβ, FIG. 2
Source text: as §1, §2

[3] = test system: Aβ production in APP751-plus neo-transfected CHO cells; test: Inhibition of Aβ production in APP751-plus neo-transfected CHO cells, ELISA (Example 3); type: cell-based, Chinese hamster; conditions: Cricetulus griseus, 4 hours, 0.005 to 100 μM, 1% DMSO
Source text: Cell Lines, Compound Treatments, and ELISAs. Cell lines were Chinese hamster ovary (CHO) and SK-N-SH human neuroblastoma cells stably transfected with the 751- or 695-amino acid splicing variants of APP, respectively, and the neo gene, and human embryonic kidney (HEK) 293 cells carrying the same genes (APP695 plus neo) but with the K595N/M596L (“Swedish”) double mutation of APP. Xia W et al., J Biol Chem 272:7977-7982 (1997); Citron M et al., Proc Natl Acad Sci USA 93:13170-13175 (1996). Cells were grown to confluence in Dulbecco's modified Eagle's medium containing 200 μg/ml G418 (Gibco BRL). Stock concentrations of the (hydroxyethyl)urea compounds of the invention in DMSO were added to media to reach the final concentrations with 1% DMSO. Positive controls contained 1% DMSO alone. […] The reporter antibody was detected using 3,3′,5,5′-tetramethylbenzidine (Pierce), measuring at 455 nm for calculating Aβ levels and at 595 nm for normalization. […]
Transfected CHO cells were prepared and maintained as described in Example 2. […] Results were plotted as percent control Aβ produced versus (hydroxyethyl)urea compound concentration (μM), and (hydroxyethyl)urea compound concentrations at which production was inhibited by 50 percent (IC50) were determined.

IC50 [1]: ~1000 nM
Compound: COC(=O)[C@H](CC(C)C)NC(=O)[C@H](CC(C)C)NC(=O)N(Cc1ccccc1)C[C@@H](O)[C@H](Cc1ccccc1)NC(=O)OC(C)(C)C [FΨFLL]
inhibitory effect on the production of Aβ42 [2]: closely followed the inhibition by compound III-20 of total Aβ production
IC50 [3]: 500 nM
